In patent US20260078119A1, “DEGRADER COMPOUNDS AND USES THEREOF” (Bristol-Myers Squibb Company, priority 2024, published 2026):

Tests used:
[1] = tested on: CAL-51 cells; assay: CAL-51 Cell Proliferation Assay; format: cell-based; conditions: for EC50: Homo sapiens, 120 hours incubation, 10-point dose response, 4-fold dilutions starting at 10 μM, Cell-Titer-Glo, read-out: CAL-51 Prolif EC50; for CAL-51 Prolif Ymin: minimal percent of DMSO control observed in the concentrations tested (Ymin-obs), 120 hours
In short: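 EC50 comes from a four-parameter logistic fit of blank-corrected, DMSO-normalised CellTiter-Glo signal after 120 h growth (37 °C, 350 cells/well, RPMI complete medium). Compounds ran as 10-point 4-fold series starting at 10 μM, duplicate, 0.1% DMSO. Ymin-obs records the minimal percent of DMSO control observed.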

[2] = biological target: T1, FAK (Homo sapiens, UniProt Q05397); assay: FAK-HiBiT Degradation Assay; format: cell-based; conditions: for DC50: JHH-4-FAK-HiBiT clone d01 cells, two hours incubation, 10-point dose response, 3-fold dilution starting at 1 μM, Nano-Glo HiBiT luminescence, read-out: FAK HiBiT EC50; for FAK HiBiT Ymin: lower limit of the four parameter fit (value A), Ymax derived using DMSO control, JHH-4-FAK-HiBiT cells, two hours
T1 construct: homozygous knock-in of a HiBiT tag (Promega Corporation, Madison, WI) to the C-terminus of the FAK gene in its natural genomic locus; endogenous in cells; host or cells: JHH-4-FAK-HiBiT clone d01 (CRISPR-Cas9 knock-in at the endogenous locus)
T1 sequence (Q05397 whole entry): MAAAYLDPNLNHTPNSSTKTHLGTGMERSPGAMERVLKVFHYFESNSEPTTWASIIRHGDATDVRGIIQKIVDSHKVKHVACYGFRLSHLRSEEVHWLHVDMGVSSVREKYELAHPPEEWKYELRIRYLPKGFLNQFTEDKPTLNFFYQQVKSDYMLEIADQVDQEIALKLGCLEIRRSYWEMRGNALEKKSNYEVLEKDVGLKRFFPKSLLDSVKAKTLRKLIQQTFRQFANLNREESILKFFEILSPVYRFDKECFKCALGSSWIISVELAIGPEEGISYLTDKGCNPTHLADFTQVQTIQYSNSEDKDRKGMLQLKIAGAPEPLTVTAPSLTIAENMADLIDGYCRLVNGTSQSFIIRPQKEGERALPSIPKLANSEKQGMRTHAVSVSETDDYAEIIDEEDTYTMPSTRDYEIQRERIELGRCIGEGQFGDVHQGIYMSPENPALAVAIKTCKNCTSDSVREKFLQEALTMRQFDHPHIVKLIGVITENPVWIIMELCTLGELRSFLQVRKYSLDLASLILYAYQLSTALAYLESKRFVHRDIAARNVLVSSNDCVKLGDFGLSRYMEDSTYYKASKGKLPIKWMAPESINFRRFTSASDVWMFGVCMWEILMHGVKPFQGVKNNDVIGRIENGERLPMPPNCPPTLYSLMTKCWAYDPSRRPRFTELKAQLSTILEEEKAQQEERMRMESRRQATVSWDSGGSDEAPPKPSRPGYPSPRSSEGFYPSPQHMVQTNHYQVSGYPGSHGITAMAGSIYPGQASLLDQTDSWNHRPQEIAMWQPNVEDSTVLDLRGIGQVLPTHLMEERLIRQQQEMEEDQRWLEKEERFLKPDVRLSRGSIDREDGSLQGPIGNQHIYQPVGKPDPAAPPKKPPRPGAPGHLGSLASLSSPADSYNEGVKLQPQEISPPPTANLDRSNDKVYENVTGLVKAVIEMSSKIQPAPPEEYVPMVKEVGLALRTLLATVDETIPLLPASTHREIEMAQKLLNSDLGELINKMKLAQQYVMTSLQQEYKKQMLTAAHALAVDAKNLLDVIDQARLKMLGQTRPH
In short: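 Degradation read out by HiBiT lytic luminescence after 2 h compound exposure (top concentration 1 μM, 3-fold, 10 points) in JHH-4 clone d01 bearing endogenous FAK-HiBiT knock-in. Four-parameter logistic fit gave EC50 and Ymin; DMSO wells defined Ymax.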

Structure (SMILES) | DC50 [2] | FAK HiBiT Ymin [2] | EC50 [1] | CAL-51 Prolif Ymin [1]
CCOc1ccc(-c2cc(N3CC(F)C3)nc3c2cnn3Cc2ccc3c(c2)CN([C@H]2CCC(=O)NC2=O)C3=O)c(C)c1 [Example 39, (3S)-3-(5-{[4-(4-ethoxy-2-methylphenyl)-6-(3-fluoroazetidin-1-yl)-1H-pyrazolo[3,4-b]pyridin-1-yl]methyl}-1-oxo-2,3-dihydro-1H-isoindol-2-yl)piperidine-2,6-dione] | 1.12 nM | 7.78 | 0.82 nM | 28.13
Cc1nc2c(-c3ccc(F)cc3F)cc(N3CC(F)C3)nc2n1Cc1ccc2c(c1)CN(C1CCC(=O)NC1=O)C2=O (centres unmarked) [Example 23, 3-(5-((7-(2,4-difluorophenyl)-5-(3-fluoroazetidin-1-yl)-2-methyl-3H-imidazo[4,5-b]pyridin-3-yl)methyl)-1-oxoisoindolin-2-yl)piperidine-2,6-dione] | 1.03 nM | 7.69 | 0.62 nM | 20.44
CN(c1cc(-c2ncc(C(F)(F)F)cc2Cl)c2cnn(Cc3ccc4c(c3)CN([C@H]3CCC(=O)NC3=O)C4=O)c2n1)[C@H]1C[C@](C)(O)C1 [Example 107, (3S)-3-[5-({4-[3-chloro-5-(trifluoromethyl)pyridin-2-yl]-6-{methyl[(1s,3r)-3-hydroxy-3-methylcyclobutyl]amino}-1H-pyrazolo[3,4-b]pyridin-1-yl}methyl)-1-oxo-2,3-dihydro-1H-isoindol-2-yl]piperidine-2,6-dione] | 38.3 nM | 18.14 | 8.44 nM | 44.59
CC(C)Nc1cc(-c2ncc(C(F)(F)F)cc2Cl)c2cnn(Cc3ccc4c(c3)CN([C@H]3CCC(=O)NC3=O)C4=O)c2n1 [Example 45, (3S)-3-[5-({4-[3-chloro-5-(trifluoromethyl)pyridin-2-yl]-6-[(propan-2-yl)amino]-1H-pyrazolo[3,4-b]pyridin-1-yl}methyl)-1-oxo-2,3-dihydro-1H-isoindol-2-yl]piperidine-2,6-dione] | 1.76 nM | 6.88 | 0.76 nM | 30.48
Cc1cc(OC(F)F)cnc1-c1cc(N2CC(F)C2)nc2c1cnn2Cc1ccc2c(c1)CN([C@H]1CCC(=O)NC1=O)C2=O [Example 66, (3S)-3-[5-({4-[5-(difluoromethoxy)-3-methylpyridin-2-yl]-6-(3-fluoroazetidin-1-yl)-1H-pyrazolo[3,4-b]pyridin-1-yl}methyl)-1-oxo-2,3-dihydro-1H-isoindol-2-yl]piperidine-2,6-dione] | 4.63 nM | 7.72 | 1.72 nM | 27.43
O=C1CCC(N2Cc3cc(Cn4ncc5c(-c6ncc(F)cc6Cl)cc(N6CC[C@@H](O)C6)nc54)ccc3C2=O)C(=O)N1 (stereo partly drawn) [Example 114, 3-(5-{[4-(3-chloro-5-fluoropyridin-2-yl)-6-[(3R)-3-hydroxypyrrolidin-1-yl]-1H-pyrazolo[3,4-b]pyridin-1-yl]methyl}-1-oxo-2,3-dihydro-1H-isoindol-2-yl)piperidine-2,6-dione] | 55.7 nM | 14.15 | 35 nM | 40.82
Cc1nc2c(-c3ccc(C(F)(F)F)cc3Cl)cc(N3CC(F)C3)nc2n1Cc1ccc2c(c1)CN(C1CCC(=O)NC1=O)C2=O (centres unmarked) [Example 20, 3-(5-((7-(2-chloro-4-(trifluoromethyl)phenyl)-5-(3-fluoroazetidin-1-yl)-2-methyl-3H-imidazo[4,5-b]pyridin-3-yl)methyl)-1-oxoisoindolin-2-yl)piperidine-2,6-dione] | 0.89 nM | 7.90 | 0.37 nM | 24.38

More lines, main results first:

DC50 [2] | FAK HiBiT Ymin [2] | Structure (SMILES) | EC50 [1] | CAL-51 Prolif Ymin [1]
≥ 1000 nM | 84.84 | COc1cc(F)cnc1-c1cc(N2CC(F)C2)nc2c1cnn2Cc1ccc2c(c1)CN(C1CCC(=O)NC1=O)C2=O (centres unmarked) [Example 130, 3-(5-{[4-(5-fluoro-3-methoxypyridin-2-yl)-6-(3-fluoroazetidin-1-yl)-1H-pyrazolo[3,4-b]pyridin-1-yl]methyl}-1-oxo-2,3-dihydro-1H-isoindol-2-yl)piperidine-2,6-dione] | 3900 nM | 76.29
1.15 nM | 6.87 | O=C1CCC(N2Cc3c(ccc(Cn4ncc5c(-c6ncc(C(F)(F)F)cc6Cl)cc(N6CC(F)C6)nc54)c3F)C2=O)C(=O)N1 (centres unmarked) [Example 40, 3-[5-({4-[3-chloro-5-(trifluoromethyl)pyridin-2-yl]-6-(3-fluoroazetidin-1-yl)-1H-pyrazolo[3,4-b]pyridin-1-yl}methyl)-4-fluoro-1-oxo-2,3-dihydro-1H-isoindol-2-yl]piperidine-2,6-dione] | 11.2 nM | 36.00
3.54 nM | 10.50 | O=C1CCC(N2Cc3cc(Cn4ncc5c(-c6ncc(OCC(F)(F)F)cc6Cl)cc(N6CC(F)C6)nc54)ccc3C2=O)C(=O)N1 (centres unmarked) [Example 59, 3-[5-({4-[3-chloro-5-(2,2,2-trifluoroethoxy)pyridin-2-yl]-6-(3-fluoroazetidin-1-yl)-1H-pyrazolo[3,4-b]pyridin-1-yl}methyl)-1-oxo-2,3-dihydro-1H-isoindol-2-yl]piperidine-2,6-dione] | 0.87 nM | 28.60
0.91 nM | 5.36 | O=C1CCC(N2Cc3cc(Cn4ncc5c(-c6ncc(C(F)(F)F)cc6Cl)cc(N6CC(F)C6)nc54)cc(F)c3C2=O)C(=O)N1 (centres unmarked) [Example 33, 3-[5-({4-[3-chloro-5-(trifluoromethyl)pyridin-2-yl]-6-(3-fluoroazetidin-1-yl)-1H-pyrazolo[3,4-b]pyridin-1-yl}methyl)-7-fluoro-1-oxo-2,3-dihydro-1H-isoindol-2-yl]piperidine-2,6-dione] | 0.51 nM | 26.78
1.73 nM | 11.00 | CCOc1cnc(-c2cc(N3CC(F)C3)nc3c2cnn3Cc2ccc3c(c2)CN(C2CCC(=O)NC2=O)C3=O)c(Cl)c1 (centres unmarked) [Example 44, 3-(5-{[4-(3-chloro-5-ethoxypyridin-2-yl)-6-(3-fluoroazetidin-1-yl)-1H-pyrazolo[3,4-b]pyridin-1-yl]methyl}-1-oxo-2,3-dihydro-1H-isoindol-2-yl)piperidine-2,6-dione] | 0.69 nM | 28.22
0.97 nM | 10.02 | O=C1CCC(N2Cc3cc(Cn4ncc5c(-c6ncc(Cl)cc6Cl)cc(N6CC(F)C6)nc54)ccc3C2=O)C(=O)N1 (centres unmarked) [Example 35, 3-(5-{[4-(3,5-dichloropyridin-2-yl)-6-(3-fluoroazetidin-1-yl)-1H-pyrazolo[3,4-b]pyridin-1-yl]methyl}-1-oxo-2,3-dihydro-1H-isoindol-2-yl)piperidine-2,6-dione] | 0.59 nM | 21.28
3.13 nM | 20.64 | O=C1CCC(N2Cc3cc(Cn4ncc5c(-c6ncc(C(F)(F)F)cc6F)cc(N6CC(F)C6)nc54)ccc3C2=O)C(=O)N1 (centres unmarked) [Example 55, 3-[5-({4-[3-fluoro-5-(trifluoromethyl)pyridin-2-yl]-6-(3-fluoroazetidin-1-yl)-1H-pyrazolo[3,4-b]pyridin-1-yl}methyl)-1-oxo-2,3-dihydro-1H-isoindol-2-yl]piperidine-2,6-dione] | 3.19 nM | 36.41
